Reference: patent US20070232492A1, “Herbicidal Composition” (Ishihara Sangyo Kaisha, LTD., priority 2004, published 2007)
Where two headings read alike, the source gives them in different places.

How the values were obtained:
Assay type in all cases: in vivo
[1] = tested on: rice (Oryza sativa var. Nihonbare); assay: Growth inhibition (phytotoxicity) of transplanted rice by compound A2 with or without compound D, application under submerged condition, visual rating 7 and 21 days after application; conditions: Compound A2 60 g/ha + Compound D 600 g/ha, applied 5 days after implantation; for Growth inhibition rate (%) (average) 7 days: 7 days after application; for Growth inhibition rate (%) (average) 21 days: 21 days after application
Description: (§1) Growth inhibition rate (%)=0% (equivalent to the non-treated area) to 100% (complete kill)
Paddy field soil was put into a 1/500,000 hectare pot, harrowed and irrigated with a depth of 3 cm. On the next day, rice (Oryza sativa var. Nihonbare) at 2 leaf stage was implanted with a depth of 3 cm. A wettable powder of compound A2 and a wettable powder of compound D were, respectively, diluted with water and applied under submerged condition 5 days after implantation so that the active ingredients became the prescribed amounts, respectively. The state of growth of rice was visually observed 7 days and 21 days after application, and the growth inhibition rate (%) was evaluated in the same is manner as in the above Test Example 1.

[2] = tested on: barnyardgrass (Echinochloa oryzicola vasing); assay: Growth inhibition of barnyardgrass in paddy soil pots, foliar application with a small sprayer, visual rating and Colby expected value; conditions: Echinochloa oryzicola, 504 h, 3.0 to 3.3 leaf stage, 21 days after application, read-out: Growth inhibition rate (%) Observed
Description: (§2) When the herbicidal activity in a case where two active ingredients are combined, is larger than the simple sum of the respective herbicidal activities of the two active ingredients (the expected activity), it is called a synergistic effect. The activity expected by the combination of two active ingredients can be calculated as follows (Colby S. R., “Weed”, vol. 15, p. 20-22, 1967). E=p+q−(p×q÷100) where p: growth inhibition rate when treated with x (g/a) of herbicide X,
(§3) q: growth inhibition rate when treated with y (g/a) of herbicide Y,
(§4) E: growth inhibition rate expected when treated with x (g/a) of herbicide X and y (g/a) of herbicide Y.
(§5) Namely, when the actual growth inhibition rate (observed value) is larger than the growth inhibition rate by the above calculation (expected value), the activity by the combination can be regarded as showing a synergistic effect.
as §1
Paddy field soil was put into a 1/10,000 are pot, and seeds of barnyardgrass (Echinochloa oryzicola vasing) were sown and left to stand under an irrigated condition with a water depth of 3.5 cm. When barnyardgrass reached 3.0 to 3.3 leaf stage, a wettable powder of compound A2 and a water-based suspension of compound (B11.1) were, respectively, diluted with water in an amount of 1,000 liter/ha, followed by foliar application with a small sprayer. The state of growth was visually observed 21 days after application, and evaluation and calculation were carried out in the same manner as in the above Test Example 1.

[3] = tested on: barnyardgrass (Echinochloa oryzicola vasing); assay: Growth inhibition of barnyardgrass in paddy soil pots, application under submerged condition, visual rating (observed value) and Colby expected value; conditions: Echinochloa oryzicola, soil, read-out: Growth inhibition rate (%) Observed
Outline: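 Barnyardgrass (Echinochloa oryzicola vasing) seeds were sown in paddy field soil in 1/10,000 are pots and kept irrigated at a water depth of 3.5 cm. Wettable powders of the active ingredients were diluted with water and applied under submerged conditions at the prescribed amounts. Growth was visually scored from 0% (as untreated) to 100% (complete kill), and expected values were calculated with Colby's formula.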

[4] = tested on: flatsedge (Cyperus serotinus); assay: Growth inhibition of flatsedge (planted tubers) in paddy soil pots, application under submerged condition, visual rating and Colby expected value; conditions: Cyperus serotinus, soil, 720 h, 2.5 to 3.0 leaf stage, 30 days after application, Test Examples 46-60, read-out: Growth inhibition rate (%) Observed
Description: as §2, §3, §4, §5, §1
(§6) Paddy field soil was put into a 1/10,000 are pot, and tubers of flatsedge (Cyperus serotinus) were planted and left to stand under an irrigated condition with a water depth of 3.5 cm. When flatsedge reached 2.8 to 3.2 leaf stage, wettable powders of compound A2 and compound (B1.2) were, respectively, diluted with water and applied under submerged condition so that the active ingredients became the prescribed amounts, respectively. The state of growth was visually observed 29 days after application, and evaluation and calculation were carried out in the same manner as in the above Test Example 1.
Paddy field soil was put into a 1/3,000 are pot, and tubers of flatsedge (Cyperus serotinus) were planted and left to stand under an irrigated condition with a water depth of 3.5 cm. When flatsedge reached 4 leaf stage, a wettable powder of compound A2 and an emulsifiable concentrate of compound C4 were, respectively, diluted with water and applied under submerged condition so that the active ingredients became the prescribed amounts, respectively. The state of growth was visually observed 21 days after application, and the growth inhibition rate (%) evaluated in the same manner as in the above Test Example 1 (observed value) and the growth inhibition rate (%) calculated by the above-mentioned Colby method (expected value) are shown in Table 32.
as §6, with “2.5” for “2.8”, “3.0” for “3.2”, “A2, compound (D2.3)” for “A2”, “(B4.1)” for “(B1.2)”, “30” for “29”, “evaluated” for “evaluation and calculation were carried out”
as §6, with “2.5” for “2.8”, “3.0” for “3.2”, “A2, compound (D2.3)” for “A2”, “(B6.1)” for “(B1.2)”, “30” for “29”, “evaluated” for “evaluation and calculation were carried out”
Paddy field soil was put into a 1/10,000 are pot, and tubers of flatsedge (Cyperus serotinus) were planted and left to stand under an irrigated condition with a water depth of 3.5 cm. When flatsedge reached 2.5 to 3.0 leaf stage, wettable powders of compound A2, compound (D2.3) and compound (B8.1) were, respectively, diluted with water and applied under submerged condition so that the active ingredients became the prescribed amounts, respectively. […]

[5] = tested on: Japanese bulrush (Scirpus juncoides); assay: Growth inhibition of Japanese bulrush in paddy soil pots, application under submerged condition, visual rating and Colby expected value; conditions: Schoenoplectiella juncoides, soil, 456 h, 3 leaf stage, 19 days after application, Test Example 37, read-out: Growth inhibition rate (%) Observed
Description: as §2, §3, §4, §5, §1
(§7) Paddy field soil was put into a 1/10,000 are pot, and seeds of Japanese bulrush (Scirpus juncoides) were sown and left to stand under an irrigated condition with a water depth of 3.5 cm. When Japanese bulrush reached 2.3 to 2.6 leaf stage, a wettable powder of compound A2 and granules of compound (B7.1) were, respectively, diluted with water and applied under submerged condition so that the active ingredients became the prescribed amounts, respectively. The state of growth was visually observed 10 days after application, and evaluation and calculation were carried out in the same manner as in the above Test Example 1.
as §7, with “an emulsifiable concentrate” for “granules”, “(B3.1)” for “(B7.1)”
(§8) Paddy field soil was put into a 1/10,000 are pot, and seeds of Japanese bulrush (Scirpus juncoides) were sown and left to stand under an irrigated condition with a water depth of 3.5 cm. When Japanese bulrush reached 2 leaf stage, wettable powders of compound A2, C2 and C4 and granules of compound C6 were, respectively, diluted with water and applied under submerged condition so that the active ingredients became the prescribed amounts, respectively.
Paddy field soil was put into a 1/10,000 are pot, and seeds of Japanese bulrush (Scirpus juncoides) were sown and left to stand under an irrigated condition with a water depth of 3.5 cm. When Japanese bulrush reached 2 leaf stage, wettable powders of compound A2, C2 and C4 and granules of compound C6 were, respectively, diluted with water and applied under submerged condition so that the active ingredients became the prescribed amounts, respectively. The state of growth was visually observed 19 days after application, and the growth inhibition rate (%) evaluated in the same manner as in the above Test Example 1 (observed value) and the growth inhibition rate (%) calculated by the above-mentioned Colby method (expected value) are shown in Tables 36, 37 and 38.
as §8, with “3” for “2”, “A2” for “A2, C2”, “and” for “and C4 and granules of”, “(D2.2)” for “C6”, “respectively. […]” for “respectively.”

**Q.** With `CC(C)(SC(=O)N1CCCCC1)c1ccccc1` [(D2.1), S-1-methyl-1-phenylethyl piperidine-1-carbothioate] as the compound, how does the “Growth inhibition rate (%) (average) 7 days” value [1] read?
**A.** 5%

**Q.** And the “Growth inhibition rate (%) (average) 21 days” value [1]?
**A.** 10%

**Q.** For `COc1cnc(OC)n2nc(NS(=O)(=O)c3c(OCC(F)F)cccc3C(F)(F)F)nc12` [Compound (B11.1), penoxsulam], which inhibition at 4.7 g/ha ([2]; 0.047 g/a) is on record?
**A.** 10%

**Q.** What about the inhibition at 9.4 g/ha ([2]; 0.094 g/a) of the same compound?
**A.** 47%

**Q.** What about the inhibition at 18.8 g/ha ([2]; 0.188 g/a) of the same compound?
**A.** 80%

**Q.** For `Cc1ccc(NC(=O)NC(C)(C)c2ccccc2)cc1` [Compound (D1.1), 1-(1-methyl-1-phenylethyl)-3-p-tolylurea], which inhibition at 563 g/ha ([3]; 528 h, 563 g/ha, 3 leaf stage, 22 days after application, Test Example 36) is on record?
**A.** 0%

**Q.** And the inhibition at 1125 g/ha ([3]; 528 h, 1,125 g/ha, 3 leaf stage, 22 days after application, Test Example 36)?
**A.** 10%

**Q.** What about the inhibition at 1500 g/ha ([4]; 15 g/a) of the same compound?
**A.** 20%

**Q.** What about the “Growth inhibition rate (%) (average) 7 days” value [1] of the same compound?
**A.** 2%

**Q.** What about the “Growth inhibition rate (%) (average) 21 days” value [1] of the same compound?
**A.** 10%

**Q.** Which results are given for `CCSC(=O)N1CCCCCC1` [Compound (D2.2), S-ethyl azepane-1-carbothioate]?
**A.** inhibition at 900 g/ha ([5]; 900 g/ha): 60%; inhibition at 1800 g/ha ([5]; 1,800 g/ha): 60%; Growth inhibition rate (%) (average) 7 days [1]: 7%; Growth inhibition rate (%) (average) 21 days [1]: 17%

**Q.** `COc1cccc(N(C)C(=S)Oc2cccc(C(C)(C)C)c2)n1` [Compound (D2.3), O-3-tert-butylphenyl 6-methoxy-2-pyridyl(methyl)thiocarbamate] was tested. Which inhibition at 188 g/ha ([3]; 504 h, 1.88 g/a, 2.8 to 3.2 leaf stage, 21 days after application, Test Examples 39-43) did it give?
**A.** 0%

**Q.** What about the inhibition at 375 g/ha ([3]; 504 h, 3.75 g/a, 2.8 to 3.2 leaf stage, 21 days after application, Test Examples 39-43) of the same compound?
**A.** 0%

**Q.** What about the inhibition at 188 g/ha ([3]; 528 h, 188 g/ha, 3 leaf stage, 22 days after application, Test Example 38) of the same compound?
**A.** 3%

**Q.** And the inhibition at 375 g/ha ([3]; 528 h, 375 g/ha, 3 leaf stage, 22 days after application, Test Example 38)?
**A.** 7%

**Q.** And the inhibition at 600 g/ha ([4]; 6 g/a)?
**A.** 20%

**Q.** What about the “Growth inhibition rate (%) (average) 7 days” value [1] of the same compound?
**A.** 3%

**Q.** What about the “Growth inhibition rate (%) (average) 21 days” value [1] of the same compound?
**A.** 5%
